Article PMC12114947, “Evaluation of Violacein Metabolic Stability and Metabolite Identification in Human, Mouse, and Rat Liver Microsomes” (Pharmaceutics, 2025)
In brackets after ≈: the same amount, converted by molar mass.

Key:
parasitemia = system: parasitemia; design: method as in PMID 19273690; details: C57BL/6 mice, three consecutive days, 3.75 mg/kg/day; cited from earlier work
[1] = system: P. falciparum 3D7 strain (chloroquine-sensitive); design: method as in PMID 29642881, PMID 33689276; details: P. falciparum 3D7 (chloroquine-sensitive); cited from earlier work
[2] = In vitro metabolic stability in mouse liver microsomes; assay type: in vitro ADME
Method: After removal, a pool consisting of livers from five naïve male rats and five C57BL male mice was immediately placed in a 50 mM Tris-HCl buffer, pH 7.4, containing 150 mM KCl. The livers were diced with scissors and washed three times with buffer, followed by homogenization with 20 mL of buffer in a Potter-type homogenizer (three cycles, with each cycle comprising three grindings of 1 min each at 1000 rpm). The homogenate was centrifuged at 10,000× g for 15 min at 4 °C. The resulting supernatant was then ultracentrifuged at 100,000× g for 60 min at 4 °C to obtain the microsomal pellet, which was resuspended in 50 mM HEPES-HCl buffer, pH 7.4, containing 20% glycerol and 1 mM EDTA.
(§1) The metabolic stability of volacein was assessed as described by Godoi et al. and Antunes et al.. Aliquots (4 µL) of 100 µM violacein working solution and 96 µL of the NADPH-regenerating system, containing 1.1 mM NADP^+, 10 mM glucose-6-phosphate, 1 U/mL glucose-6-phosphate dehydrogenase, 5 mM sodium citrate, and 66 mM magnesium chloride in 100 mM phosphate buffer, pH 7.4, were transferred to propylene tubes and pre-incubated for 5 min in an MTC 100 thermo shaker incubator (Miulab, Zhejiang, China) at 300 rpm and 37 °C. Subsequently, the metabolic reactions were initiated by adding 100 μL of microsomal proteins from HLMs, RLMs, and MLMs at a concentration of 2 mg/mL to the pre-incubated shaking tubes, resulting in final concentrations of 2 μM for violacein and 1 mg/mL for microsomal proteins. In this experiment, seven incubation times were planned for each species (0, 3, 5, 15, 30, 60, and 120 min), in triplicate. At each time interval, the reactions were stopped by adding 400 μL of ice-cold acetonitrile spiked with 10 µM omeprazole (IS) to each tube. Finally, the samples were vortexed for 5 min in a BenchMixer^TM XL (Benchmark, NJ, USA) and centrifuged at 12,000× g for 15 min at 4 °C (Hettich® Universal 320 R, Tuttlingen, Germany). The supernatants were transferred to a 96-well plate and 8 μL was injected into the LC-MS/MS system (see Section 2.3).
(§2) All incubations were performed simultaneously with positive and negative controls. The positive controls were prepared by incubating dapaconazole at the same conditions as violacein (final concentrations: 2 μM) and its metabolic stability was compared with previous studies. Similarly, the negative controls were prepared by incubating violacein in buffer solution, in the absence of microsome and cofactor solutions.
(§3) Violacein was analyzed using LC-MS/MS (LC-QQQ MS, LCMS8045, Shimadzu, Kyoto, Japan). Chromatographic separation was achieved on a Raptor^TM Biphenyl column (2.1 × 100 mm, 2.7 μm) at 40 °C. The mobile phases consisted of water (mobile phase A) and methanol (mobile phase B), both containing 2 mM ammonium formate and 0.1% (v/v) formic acid. A flow rate of 0.3 mL/min was used with an elution gradient starting at 20% mobile phase B and holding for 0.2 min, followed by a linear increase to 95% mobile phase B over 2 min that was then maintained for 1 min, with a return to the initial condition in 0.2 min. The total chromatographic run time was 5 min.
(§4) In vitro t1/2 was calculated using to the following equation [60, 61]:(1) t1/2=ln(2)/k where k is the slope of the log-linear regression graph of the percentage of drug remaining as a function of time.
CLint, in vitro was calculated using to the following equation [60, 61]:(2) CLint, in vitro=0.693/t1/2×Vincubation/mmicrosomes where Vincubation indicates the volume of the incubation in μL and mmicrosomes indicates the mass of microsomal proteins added to the incubation solution in mg. […]

in vitro = in vitro ADME; details: human
Method: as §1, §2, §3, §4
CLint, in vitro was calculated using to the following equation [60, 61]:(2) CLint, in vitro=0.693/t1/2×Vincubation/mmicrosomes where Vincubation indicates the volume of the incubation in μL and mmicrosomes indicates the mass of microsomal proteins added to the incubation solution in mg.
After determining CLint, in vitro, it was possible to calculate CLint, in vivo using allometric scaling, as follows:(3) CLint, in vivo=CLint, in vitro×mmicrosomes/gliver×mliver/kgper body weight where mmicrosomes is 61, 45, and 40 mg and represents the mass of microsomal protein per gram of liver (gliver) for rats, mice, and humans, respectively. The mliver is 40, 87.5, and 25.7 g/kg and represents the mass of liver per kilogram of body weight (kgper body weight) for rats, mice, and humans, respectively.
Metabolic stability was evaluated by linear regression analysis of the residual violacein after incubating 4 µM violacein with 2 mg/mL of HLMs, MLMs, and RLMs in the presence of the enzymatic cofactors required for CYP function in microsomes. Calculation of the in vitro violacein metabolic stability was achieved by plotting the remaining percentage of violacein on the y-axis and the incubation time on the x-axis (Figure 1a). […]

Cryptococcus gastricus = system: Cryptococcus gastricus; design: method as in PMID 26428920; details: cited from earlier work
Candida albicans = system: Candida albicans; design: method as in PMID 26428920; details: cited from earlier work
Caco-2 cells = system: Caco-2 cells; design: method as in PMID 16889929; details: cited from earlier work

CLint, in vitro ([2]; MLMs): 17.01 µL/min/mg
Ln Z ([2]; MLMs, time 0 min): 4.605
Z (%), remaining percentage of violacein ([2]; MLMs, time 0 min): 100%
Ln Z ([2]; MLMs, time 3 min): 4.490
Z (%), remaining percentage of violacein ([2]; MLMs, time 3 min): 89%
Ln Z ([2]; MLMs, time 5 min): 4.379
Z (%), remaining percentage of violacein ([2]; MLMs, time 5 min): 80%
Ln Z ([2]; MLMs, time 15 min): 4.244
Z (%), remaining percentage of violacein ([2]; MLMs, time 15 min): 70%
Ln Z ([2]; MLMs, time 30 min): 4.022
Z (%), remaining percentage of violacein ([2]; MLMs, time 30 min): 56%
Ln Z ([2]; MLMs, time 60 min): 3.715
Z (%), remaining percentage of violacein ([2]; MLMs, time 60 min): 41%
Ln Z ([2]; MLMs, time 120 min): 3.385
microsomal CLint at 2 µM ([2]; male, C57BL, mouse, mouse liver microsomes, pH 7.4, MLMs): 17 µL/min/mg
CLint scaled at 2 µM ([2]; male, C57BL, mouse, mouse liver microsomes, pH 7.4, mouse, extrapolated from CLint, in vitro by allometric scaling, read-out: CLint, in vivo): 67 mL/min/kg
half-life at 2 µM ([2]; male, C57BL, mouse, mouse liver microsomes, pH 7.4, MLMs, 2 μM violacein, 1 mg/mL microsomal protein, NADPH-regenerating system, 37 °C, n = 3, read-out: In vitro elimination half-life (t1/2)): 1.35 h
CLint, in vivo ([2]; mouse, extrapolated from CLint, in vitro by allometric scaling): 66.99 mL/min/kg
Ln Z (in vitro; 0 min, 2 µM, pH 7.4): 4.605
Ln Z (in vitro; 3 min, 2 µM, pH 7.4): 4.462
Ln Z (in vitro; 5 min, 2 µM, pH 7.4): 4.417
Ln Z (in vitro; 15 min, 2 µM, pH 7.4): 4.316
Ln Z (in vitro; 30 min, 2 µM, pH 7.4): 4.277
Ln Z (in vitro; 60 min, 2 µM, pH 7.4): 4.183
Ln Z (in vitro; 120 min, 2 µM, pH 7.4): 4.017
Z (%), remaining percentage of violacein (in vitro; microsomes, 0 h, 2 µM, pH 7.4): 100%
CLint, in vivo (in vitro; microsomes, 2 µM, pH 7.4): 6.58 mL/min/kg
Z (%), remaining percentage of violacein (in vitro; microsomes, 0.05 h, 2 µM, pH 7.4): 87%
Z (%), remaining percentage of violacein (in vitro; microsomes, 5 min, 2 µM, pH 7.4): 83%
Z (%), remaining percentage of violacein (in vitro; microsomes, 0.25 h, 2 µM, pH 7.4): 75%
Z (%), remaining percentage of violacein (in vitro; microsomes, 0.5 h, 2 µM, pH 7.4): 72%
Z (%), remaining percentage of violacein (in vitro; microsomes, 1 h, 2 µM, pH 7.4): 66%
half-life at 2 µM (in vitro; microsomes, pH 7.4): 3.6 h
microsomal CLint at 2 µM (in vitro; microsomes, pH 7.4): 6.4 µL/min/mg
CLint scaled at 2 µM (in vitro; microsomes, pH 7.4, CLint, in vivo): 6.6 mL/min/kg
SMILES: O=C1NC(c2c[nH]c3ccc(O)cc23)=C/C1=C1\C(=O)Nc2ccccc21 [violacein]
Reduction in parasitemia (parasitemia): 82%
IC50 [1]: ~0.4 µM
Slope (k), metabolism rate constant ([2]; MLMs, ln remaining % vs incubation time): y = −0.0085x + 4.3405 r^2 = 0.9554 Slope (k) = 0.0085
Slope (k), metabolism rate constant (in vitro; 2 µM, pH 7.4): y = −0.0032x + 4.3894 r^2 = 0.9651 Slope (k) = 0.0032
MIC (Cryptococcus gastricus): 32 µg/mL (≈ 93.2 µM)
MIC (Candida albicans): 8 µg/mL (≈ 23.3 µM)
IC50 (Caco-2 cells): ~2 µM
